{"source": "PubChem BioAssay AID256", "about": "(DTP/NCI, 2004)", "tested_on": "CD2F1 mice, L1210 leukemia ip, survival T/C", "assay": "NCI In Vivo Anticancer Drug Screen. Data for tumor model L1210 Leukemia (intraperitoneal) in CD2F1 (CDF1) mice", "conditions": "endpoint: mean survival time, higher = longer survival", "procedure,_shortened": "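Ratio T/C, where T is the treated-group value and C the vehicle-dosed control value, from mice implanted with a transplantable tumor.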", "key": {"[1]": {"conditions": "dose: 100.0 mg/kg/injection, schedule: Q01DX001 (ip), vehicle: saline with Tween-80"}, "[2]": {"conditions": "dose: 25.0 mg/kg/injection, schedule: Q01DX009 (ip), vehicle: Klucel (hydroxypropylcellulose) (HPC)"}, "[3]": {"conditions": "dose: 100.0 mg/kg/injection, schedule: Q01DX001 (ip), vehicle: saline"}, "[4]": {"conditions": "dose: 200.0 mg/kg/injection, schedule: Q01DX001 (ip), vehicle: saline"}, "[5]": {"conditions": "dose: 400.0 mg/kg/injection, schedule: Q01DX001 (ip), vehicle: saline"}, "[6]": {"conditions": "dose: 200.0 mg/kg/injection, schedule: Q01DX009 (ip), vehicle: saline with Tween-80"}, "[7]": {"conditions": "dose: 400.0 mg/kg/injection, schedule: Q01DX009 (ip), vehicle: saline with Tween-80"}, "[8]": {"conditions": "dose: 100.0 mg/kg/injection, schedule: Q01DX009 (ip), vehicle: saline with Tween-80"}}, "note": "“And” between values parts separate entries of the source, which are not always exact repeats. Equal entries are not always repeated. Toxic doses and inconclusive results are not listed.", "data": [{"compound": "CCOC(=O)c1ccc(N(CCO)CCO)cc1", "values": [{"measurement": "T/C", "setting": "dose: 75.0 mg/kg/injection, schedule: Q01DX001 (ip), vehicle: other", "value": "94 % of control"}, {"measurement": "T/C", "setting": "dose: 150.0 mg/kg/injection, schedule: Q01DX001 (ip), vehicle: other", "value": "97 % of control"}, {"measurement": "T/C", "setting": "dose: 300.0 mg/kg/injection, schedule: Q01DX001 (ip), vehicle: other", "value": "102 % of control"}]}, {"compound": "[Cl][Pt+2][Cl].c1ccc(CC2CC[N-]CC2)cc1.c1ccc(CC2CC[N-]CC2)cc1", "values": [{"measurement": "T/C", "setting": "dose: 50.0 mg/kg/injection, schedule: Q01DX001 (ip), vehicle: saline with Tween-80", "value": "96 % of control"}, {"measurement": "T/C", "setting": "[1]", "value": "96 % of control"}, {"measurement": "T/C", "setting": "dose: 200.0 mg/kg/injection, schedule: Q01DX001 (ip), vehicle: saline with Tween-80", "value": "90 % of control"}]}, {"compound": "CCOC(=O)/C=C(C)/C=C/C=C(/C)CCC=C(C)C", "values": [{"measurement": "T/C", "setting": "dose: 100.0 mg/kg/injection, schedule: Q04DX002 (ip), vehicle: saline with Tween-80", "value": "100 % of control"}, {"measurement": "T/C", "setting": "dose: 200.0 mg/kg/injection, schedule: Q04DX002 (ip), vehicle: saline with Tween-80", "value": "100 % of control"}, {"measurement": "T/C", "setting": "dose: 400.0 mg/kg/injection, schedule: Q04DX002 (ip), vehicle: saline with Tween-80", "value": "92 % of control"}]}, {"compound": "CC[C@@]1(O)C[C@H](OC2CC(N(C)C)C(OC3CC(O)C(OC4CCC(=O)C(C)O4)C(C)O3)C(C)O2)c2c(cc3c(c2O)C(=O)c2c(O)ccc(O)c2C3=O)[C@H]1C(=O)OC", "note": "(some centres undefined)", "values": [{"measurement": "T/C", "setting": "dose: 0.25 mg/kg/injection, schedule: Q01DX009 (ip), vehicle: water", "value": "101 % of control and 109 % of control"}, {"measurement": "T/C", "setting": "dose: 0.5 mg/kg/injection, schedule: Q01DX009 (ip), vehicle: water", "value": "113 % of control and 117 % of control and 119 % of control"}, {"measurement": "T/C", "setting": "dose: 1.0 mg/kg/injection, schedule: Q01DX009 (ip), vehicle: water", "value": "122 % of control"}, {"measurement": "T/C", "setting": "dose: 4.0 mg/kg/injection, schedule: Q01DX009 (ip), vehicle: water", "value": "89 % of control"}]}, {"compound": "O=C1C=CC(=O)N1c1ccc(Cl)cc1", "values": [{"measurement": "T/C", "setting": "dose: 6.25 mg/kg/injection, schedule: Q01DX001 (ip), vehicle: Klucel (hydroxypropylcellulose) (HPC)", "value": "100 % of control"}, {"measurement": "T/C", "setting": "dose: 6.25 mg/kg/injection, schedule: Q01DX009 (ip), vehicle: Klucel (hydroxypropylcellulose) (HPC)", "value": "110 % of control"}, {"measurement": "T/C", "setting": "dose: 6.25 mg/kg/injection, schedule: Q04DX003 (ip), vehicle: Klucel (hydroxypropylcellulose) (HPC)", "value": "107 % of control"}, {"measurement": "T/C", "setting": "dose: 12.5 mg/kg/injection, schedule: Q01DX001 (ip), vehicle: Klucel (hydroxypropylcellulose) (HPC)", "value": "103 % of control"}, {"measurement": "T/C", "setting": "dose: 12.5 mg/kg/injection, schedule: Q01DX009 (ip), vehicle: Klucel (hydroxypropylcellulose) (HPC)", "value": "101 % of control"}, {"measurement": "T/C", "setting": "dose: 12.5 mg/kg/injection, schedule: Q04DX003 (ip), vehicle: Klucel (hydroxypropylcellulose) (HPC)", "value": "104 % of control"}, {"measurement": "T/C", "setting": "[2]", "value": "96 % of control"}]}, {"compound": "Cc1cccc(Nc2c3ccccc3nc3ccccc23)c1", "values": [{"measurement": "T/C", "setting": "[1]", "value": "100 % of control"}]}, {"compound": "Cn1c(=O)c(Br)cc2ccccc21", "values": [{"measurement": "T/C", "setting": "[3]", "value": "102 % of control"}, {"measurement": "T/C", "setting": "[4]", "value": "96 % of control"}, {"measurement": "T/C", "setting": "[5]", "value": "96 % of control"}]}, {"compound": "COC(=O)C(CSCc1ccccc1)NC(=O)CCNC(=O)OCc1ccccc1", "note": "(centres undefined)", "values": [{"measurement": "T/C", "setting": "[2]", "value": "102 % of control"}, {"measurement": "T/C", "setting": "dose: 50.0 mg/kg/injection, schedule: Q01DX009 (ip), vehicle: Klucel (hydroxypropylcellulose) (HPC)", "value": "102 % of control"}, {"measurement": "T/C", "setting": "dose: 100.0 mg/kg/injection, schedule: Q01DX009 (ip), vehicle: Klucel (hydroxypropylcellulose) (HPC)", "value": "96 % of control"}, {"measurement": "T/C", "setting": "dose: 200.0 mg/kg/injection, schedule: Q01DX009 (ip), vehicle: Klucel (hydroxypropylcellulose) (HPC)", "value": "102 % of control"}, {"measurement": "T/C", "setting": "dose: 400.0 mg/kg/injection, schedule: Q01DX009 (ip), vehicle: Klucel (hydroxypropylcellulose) (HPC)", "value": "86 % of control"}]}, {"compound": "CC(C)(C)CC(C)(C)c1ccc(OCCOc2ccc(C(=O)NCCNC(=O)c3ccc4ccccc4c3O)cc2N)cc1", "values": [{"measurement": "T/C", "setting": "[6]", "value": "89 % of control"}, {"measurement": "T/C", "setting": "[7]", "value": "89 % of control"}]}, {"compound": "Cn1c(=O)[nH]c2c(c1=O)CCO2", "values": [{"measurement": "T/C", "setting": "[3]", "value": "103 % of control"}, {"measurement": "T/C", "setting": "[4]", "value": "97 % of control"}, {"measurement": "T/C", "setting": "[5]", "value": "100 % of control"}]}, {"compound": "O=S(=O)(O)O.[NH-]C(c1ccccc1)C([NH-])c1ccccc1.[Pt+2]", "note": "(centres undefined)", "values": [{"measurement": "T/C", "setting": "dose: 12.5 mg/kg/injection, schedule: Q04DX003 (ip), vehicle: saline with Tween-80", "value": "192 % of control"}, {"measurement": "T/C", "setting": "dose: 25.0 mg/kg/injection, schedule: Q04DX003 (ip), vehicle: saline with Tween-80", "value": "234 % of control and 197 % of control"}]}, {"compound": "Cc1ncc(C(=O)O)n1Cc1ccccc1", "values": [{"measurement": "T/C", "setting": "[8]", "value": "94 % of control"}, {"measurement": "T/C", "setting": "[6]", "value": "94 % of control"}, {"measurement": "T/C", "setting": "[7]", "value": "92 % of control"}]}, {"compound": "O=[n+]1cc2ccccn2cc1-c1ccccc1", "values": [{"measurement": "T/C", "setting": "[8]", "value": "97 % of control"}, {"measurement": "T/C", "setting": "dose: 100.0 mg/kg/injection, schedule: Q04DX003 (ip), vehicle: saline with Tween-80", "value": "104 % of control"}, {"measurement": "T/C", "setting": "[6]", "value": "101 % of control"}, {"measurement": "T/C", "setting": "dose: 200.0 mg/kg/injection, schedule: Q04DX003 (ip), vehicle: saline with Tween-80", "value": "104 % of control"}, {"measurement": "T/C", "setting": "[7]", "value": "101 % of control"}]}]}
